Values of other authors in patent US6905813B2, “Processing agent for silver halide color photosensitive material and processing method thereof” (Chugai Photo Chemical Co., Ltd., priority 2001, dated 2005).
Like-named read-outs stand apart in the source and are kept apart here.

[1] = Table 1, additives of Example 1
[2] = Table 3, additives of Example 2
[3] = Table 7, additives of Example 4
[4] = Table 5, additives of Example 3

| Structure (SMILES) | pKa [1] | pKa [2] | pKa [3] | pKa [4] |
| --- | --- | --- | --- | --- |
| CC(N)CCN (centres unmarked) [1,3-diaminobutane] | 8.74 | 8.74 | 8.74 | – |
| NCCCCN [1,4-diaminobutane] | 9.44 | 9.44 | 9.44 | – |
| Nc1ccccn1 [2-aminopyridine] | – | – | – | 6.79 |
| O=S([O-])[O-].[Na+].[Na+] [Sodium sulfite] | 7.19 | 7.19 | 7.19 | 7.19 |
